Laboratory results published in patent US9567325B2, “Carboxamide compounds and their use as calpain inhibitors” (AbbVie Deutschland GmbH & Co. KG, priority 2009, dated 2017).

What was measured:
[1] = target: T1, recombinant human cathepsin S (Homo sapiens, UniProt P25774); assay: Cathepsin S enzyme inhibition in vitro, kinetic fluorescence assay (selectivity vs calpain); format: biochemical; conditions: ratio of Ki values; Z-Val-Val-Arg-AMC substrate, pH 6.0
T1 construct: purchased Calbiochem 219343; host or cells: E. coli
T1 sequence (P25774 115-331): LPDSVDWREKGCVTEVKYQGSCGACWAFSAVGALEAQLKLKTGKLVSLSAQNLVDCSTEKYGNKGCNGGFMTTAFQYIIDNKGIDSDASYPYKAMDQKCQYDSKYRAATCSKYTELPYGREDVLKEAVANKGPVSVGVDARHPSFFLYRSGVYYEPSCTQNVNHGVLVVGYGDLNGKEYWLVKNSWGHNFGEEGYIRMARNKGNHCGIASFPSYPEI
Description: (§1) The following solutions and buffers were employed: • HBS (for 40 ml): 800 μl 1M HEPES; 2.16 ml 100 mM KCl; 4.8 ml 1M NaCl; 3.59 ml 5% glucose; 60 μl 1M MgSO4; 400 μl 100 mM Na pyruvate, 28.19 ml water; pH 7.2-7.5. • lysis buffer (for 20 ml): 400 μl 1M Tris pH 8.2; 2.74 ml 1M NaCl; 520 μl 0.5M EDTA; 2 ml 10% triton X-100; 0.8 ml (=1:25) CompletePlus (1 tablet/2 ml H2O); 200 μl 100 mM Pefabloc; 13.34 ml water, pH 8.2. • TBST (10×) (for 11): 100 mM Tris (12.1 g); 1.5M NaCl (87 g); 1% Tween 20 (10 g), adjusted to pH 8. I Enzyme Inhibition In Vitro: • Testing for blockade of the corresponding enzymic activities was carried out by means of kinetic fluorescence assays (excitation 390 nm, emission 460 nm). • Apparent Ki values were calculated from the experimentally determined IC50 values by the Cheng-Prussoff relation assuming a reversible competitive enzyme inhibition. The Km values of the substrates used under the assay conditions indicated above were: 90 μM (Z-Phe-Arg-AMC, cathepsin B), 10 μM (Z-Gly-Pro-Arg-AMC, cathepsin K), 2 μM (Z-Phe-Arg-AMC, cathepsin L), and 30 μM (Z-Val-Val-Arg-AMC, cathepsin S). • The indicated Ki values are averages of the inhibition constants calculated on the basis of 2 to 4 independent dose-effect plots. • The following assays were used: • 1. Calpain I: • 20 nM calpain-1-isolated from human erythrocytes (Calbiochem #208713), 100 μM Suc-Leu-Tyr-AMC (Bachem #1-1355) as substrate in buffer with 62 mM imidazole, 0.3 mM CaCl2, 0.10% CHAPS, 0.05% BSA, 1 mM DTT at pH 7.3 and room temperature. • 2. Cathepsin B: • 0.25 nM cathepsin B—isolated from human liver (Calbiochem #219362), 100 μM Z-Phe-Arg-AMC (Bachem #1-1160) as substrate 50 mM MES, 2 mM EDTA, 0.05% Brij 35, 2.5 mM L-cysteine, pH 6.0, room temperature. • 3. Cathepsin K: • 3 nM cathepsin K-activated from recombinant human procathepsin K from E. coli (Calbiochem #342001), 10 μM Z-Gly-Pro-Arg-AMC (Biomol #P-142) as substrate in 50 mM MES, 2 mM EDTA, 0.05% Brij 35, 2.5 mM L-cysteine, pH 6.0, room temperature. • 4. Cathepsin L: • 1 nM cathepsin L—isolated from human liver (Calbiochem #219402), 2 μM Z-Phe-Arg-AMC (Bachem #1-1160) as substrate in 50 mM MES, 2 mM EDTA, 0.05% Brij 35, 2.5 mM L-cysteine, pH 6.0, room temperature. • 5. Cathepsin S: • 0.5 nM recombinant human cathepsin S from E. coli (Calbiochem #219343), 20 μM Z-Val-Val-Arg-AMC (Bachem #I-1540) as substrate in 50 mM MES, 2 mM EDTA, 0.05% Brij 35, 2.5 mM L-cysteine, pH 6.0, room temperature. • The results of the in vitro determination are indicated in Table 1. The following abbreviations are used in Table 1: • In the “Calpain activity” column, +++ stands for a calpain Ki (Ki(calpain)) of ≦40 nM, and ++ means: 40 nM<Ki(Calpain)≦100 nM and + means 100 nM<Ki(Calpain)≦300 nM. • The “Sel. cat. B” column indicates the Ki(cathepsin B)/Ki(calpain) ratio. In this connection, ++ means a Ki(cathepsin B)/Ki(calpain) ratio of ≧30 and + means 10≦Ki(cathepsin B)/Ki(calpain)<30. • The “Sel. cat. K” column indicates the Ki(cathepsin K)/Ki(calpain) ratio. In this connection, ++ means a Ki(cathepsin K)/Ki(calpain) ratio of ≧30 and + means 10≦Ki(cathepsin K)/Ki(calpain)<30. • The “Sel. cat. L” column indicates the Ki(cathepsin L)/Ki(calpain) ratio. In this connection, ++ means a Ki(cathepsin L)/Ki(calpain) ratio of ≧50 and + means 30≦Ki(cathepsin L)/Ki(calpain)<50. • The “Sel. cat. S” column indicates the Ki(cathepsin S)/Ki(calpain) ratio. In this connection, ++ means a Ki(cathepsin S)/Ki(calpain) ratio of ≧100 and + means 50≦Ki(cathepsin S)/Ki(calpain)<100.

[2] = target: T2, cathepsin L isolated from human liver (Homo sapiens, UniProt P07711); assay: Cathepsin L enzyme inhibition in vitro, kinetic fluorescence assay (selectivity vs calpain); format: biochemical; conditions: ratio of Ki values; Z-Phe-Arg-AMC substrate, pH 6.0
T2 construct: 1 nM cathepsin L—isolated from human liver (Calbiochem #219402); purchased Calbiochem 219402; host or cells: human liver (natural source)
T2 sequence (P07711 114-333): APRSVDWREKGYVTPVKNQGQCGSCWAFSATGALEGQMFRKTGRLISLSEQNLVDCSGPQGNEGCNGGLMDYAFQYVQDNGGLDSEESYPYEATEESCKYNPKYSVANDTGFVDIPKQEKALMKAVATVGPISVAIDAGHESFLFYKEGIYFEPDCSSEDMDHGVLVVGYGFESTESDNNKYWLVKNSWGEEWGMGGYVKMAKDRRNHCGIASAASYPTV
Description: as §1

[3] = target: T3, cathepsin K activated from recombinant human procathepsin K (Homo sapiens, UniProt P43235); assay: Cathepsin K enzyme inhibition in vitro, kinetic fluorescence assay (selectivity vs calpain); format: biochemical; conditions: ratio of Ki values; Z-Gly-Pro-Arg-AMC substrate, pH 6.0
T3 construct: purchased Calbiochem 342001; host or cells: E. coli
T3 sequence (P43235 115-329): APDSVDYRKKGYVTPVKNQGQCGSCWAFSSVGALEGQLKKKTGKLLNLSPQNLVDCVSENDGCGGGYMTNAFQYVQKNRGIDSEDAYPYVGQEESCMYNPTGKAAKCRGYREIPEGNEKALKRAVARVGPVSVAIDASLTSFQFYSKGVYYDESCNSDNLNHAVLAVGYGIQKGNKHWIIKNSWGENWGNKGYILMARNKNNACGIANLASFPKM
Description: as §1

[4] = target: T4, calpain-1 isolated from human erythrocytes (Homo sapiens, UniProt P07384); assay: Calpain I enzyme inhibition in vitro, kinetic fluorescence assay; format: biochemical; conditions: apparent Ki calculated from IC50 by Cheng-Prussoff; 100 μM Suc-Leu-Tyr-AMC, pH 7.3, room temperature
T4 construct: 20 nM calpain-1-isolated from human erythrocytes (Calbiochem #208713); purchased Calbiochem 208713; host or cells: human erythrocytes (natural source)
T4 sequence (P07384 1-714): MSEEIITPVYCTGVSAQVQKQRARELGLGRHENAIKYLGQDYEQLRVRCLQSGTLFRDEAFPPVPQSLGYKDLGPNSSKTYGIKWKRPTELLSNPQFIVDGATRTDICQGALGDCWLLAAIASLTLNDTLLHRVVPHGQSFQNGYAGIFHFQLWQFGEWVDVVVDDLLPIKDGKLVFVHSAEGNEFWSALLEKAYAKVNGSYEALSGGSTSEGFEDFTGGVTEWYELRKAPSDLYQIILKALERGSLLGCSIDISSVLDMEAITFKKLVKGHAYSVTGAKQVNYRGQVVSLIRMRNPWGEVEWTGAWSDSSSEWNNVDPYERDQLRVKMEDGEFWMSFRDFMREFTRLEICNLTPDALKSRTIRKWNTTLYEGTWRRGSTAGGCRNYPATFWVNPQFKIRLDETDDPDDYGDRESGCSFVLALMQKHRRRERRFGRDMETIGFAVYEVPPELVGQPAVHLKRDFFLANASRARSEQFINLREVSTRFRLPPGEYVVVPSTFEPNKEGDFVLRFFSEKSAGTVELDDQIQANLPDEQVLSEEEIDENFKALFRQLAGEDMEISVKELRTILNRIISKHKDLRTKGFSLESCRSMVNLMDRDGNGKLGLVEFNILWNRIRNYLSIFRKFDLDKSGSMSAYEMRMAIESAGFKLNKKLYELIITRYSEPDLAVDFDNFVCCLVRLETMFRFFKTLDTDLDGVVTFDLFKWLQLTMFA
T4 sequence (P04632 1-268 partner): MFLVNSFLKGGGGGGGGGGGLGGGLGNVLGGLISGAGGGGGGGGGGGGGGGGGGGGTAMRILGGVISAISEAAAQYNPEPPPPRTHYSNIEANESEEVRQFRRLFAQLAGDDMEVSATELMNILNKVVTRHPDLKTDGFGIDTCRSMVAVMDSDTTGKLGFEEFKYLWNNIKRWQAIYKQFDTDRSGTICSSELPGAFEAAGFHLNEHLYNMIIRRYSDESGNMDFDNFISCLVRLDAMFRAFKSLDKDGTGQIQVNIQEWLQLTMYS
Description: as §1

[5] = target: T5, cathepsin B isolated from human liver (Homo sapiens, UniProt P07858); assay: Cathepsin B enzyme inhibition in vitro, kinetic fluorescence assay (selectivity vs calpain); format: biochemical; conditions: ratio of Ki values; Z-Phe-Arg-AMC substrate, pH 6.0
T5 construct: 0.25 nM cathepsin B—isolated from human liver (Calbiochem #219362); purchased Calbiochem 219362; host or cells: human liver (natural source)
Description: as §1

[6] = Cytosolic clearance in human liver cytosol; format: in vitro ADME; conditions: 0.5 μM compound, 1 mg/ml human liver cytosol, 37° C., pH 7.5; read-out: human cytCL (cytosolic clearance)
[7] = Cytosolic clearance in cynomolgus monkey liver cytosol; format: in vitro ADME; conditions: female; 0.5 μM compound, 1 mg/ml cynomolgus monkey liver cytosol, 37° C., pH 7.5; read-out: cyno cytCL (cytosolic clearance)

Structure (SMILES)	Sel cat. S (Ki(cathepsin S)/Ki(calpain) ratio) [1]	Sel cat. L (Ki(cathepsin L)/Ki(calpain) ratio) [2]	Sel cat. K (Ki(cathepsin K)/Ki(calpain) ratio) [3]	Ki [4] [nM]	Sel cat. B (Ki(cathepsin B)/Ki(calpain) ratio) [5]	microsomal CLint at 0.5 μM [6] [µL/min/mg]	microsomal CLint at 0.5 μM [7] [µL/min/mg]
NC(=O)C(=O)C(Cc1ccccc1)NC(=O)c1cccnc1-c1csc(-c2ccccc2)n1 (centres unmarked) [Example 7, N-(4-Amino-3,4-dioxo-1-phenylbutan-2-yl)-2-(2-phenyl-1,3-thiazol-4-yl)pyridine-3-carboxamide]	++ (++ means a Ki(cathepsin S)/Ki(calpain) ratio of ≧100)	++ (++ means a Ki(cathepsin L)/Ki(calpain) ratio of ≧50)	+ (+ means 10≦Ki(cathepsin K)/Ki(calpain)<30)	≤ 40	++ (++ means a Ki(cathepsin B)/Ki(calpain) ratio of ≧30)	–	–
NC(=O)C(=O)C(Cc1ccccc1)NC(=O)c1cccnc1-c1csc(-c2ccccc2Cl)n1 (centres unmarked) [Example 8, N-(4-Amino-3,4-dioxo-1-phenylbutan-2-yl)-2-[2-(2-chlorophenyl)-1,3-thiazol-4-yl]pyridine-3-carboxamide]	++ (++ means a Ki(cathepsin S)/Ki(calpain) ratio of ≧100)	++ (++ means a Ki(cathepsin L)/Ki(calpain) ratio of ≧50)	+ (+ means 10≦Ki(cathepsin K)/Ki(calpain)<30)	≤ 40	++ (++ means a Ki(cathepsin B)/Ki(calpain) ratio of ≧30)	–	–
NC(=O)C(=O)C(Cc1ccccc1)NC(=O)c1cccnc1-c1csc(-c2ccc3ccccc3c2)n1 (centres unmarked) [Example 9, N-(4-Amino-3,4-dioxo-1-phenylbutan-2-yl)-2-[2-(naphthalen-2-yl)-1,3-thiazol-4-yl]pyridine-3-carboxamide]	++ (++ means a Ki(cathepsin S)/Ki(calpain) ratio of ≧100)	++ (++ means a Ki(cathepsin L)/Ki(calpain) ratio of ≧50)	+ (+ means 10≦Ki(cathepsin K)/Ki(calpain)<30)	40 to 100	++ (++ means a Ki(cathepsin B)/Ki(calpain) ratio of ≧30)	–	–
O=C(NC1CC1)C(=O)C(Cc1ccccc1)NC(=O)c1cccnc1-c1csc(-c2ccccc2)n1 (centres unmarked) [Example 13, N-(4-(Cyclopropylamino)-3,4-dioxo-1-phenylbutan-2-yl)-2-(2-phenylthiazol-4-yl)nicotinamide]	–	+ (+ means 30≦Ki(cathepsin L)/Ki(calpain)<50)	+ (+ means 10≦Ki(cathepsin K)/Ki(calpain)<30)	100 to 300	++ (++ means a Ki(cathepsin B)/Ki(calpain) ratio of ≧30)	< 14	< 18
CONC(=O)C(=O)C(Cc1ccccc1)NC(=O)c1cccnc1-c1csc(-c2ccccc2)n1 (centres unmarked) [Example 14, N-(4-(Methoxyamino)-3,4-dioxo-1-phenylbutan-2-yl)-2-(2-phenylthiazol-4-yl)nicotinamide]	–	–	–	100 to 300	–	< 14	< 18
NC(=O)C(=O)C(Cc1ccc(F)cc1)NC(=O)c1cccnc1-c1csc(-c2ccccc2)n1 (centres unmarked) [Example 15, N-(4-Amino-1-(4-fluorophenyl)-3,4-dioxobutan-2-yl)-2-(2-phenylthiazol-4-yl)nicotinamide]	++ (++ means a Ki(cathepsin S)/Ki(calpain) ratio of ≧100)	++ (++ means a Ki(cathepsin L)/Ki(calpain) ratio of ≧50)	+ (+ means 10≦Ki(cathepsin K)/Ki(calpain)<30)	40 to 100	++ (++ means a Ki(cathepsin B)/Ki(calpain) ratio of ≧30)	–	–
